Experimental findings from patent publication US20020132823A1, “Assay method” (priority 2001, published 2002) are described below.

The nature of data set [1]: Cytotoxicity in THP-1 cells (MTT). Format: cell-based. The following applies: human, THP-1 cells stimulated with LPS/IFNγ, LPS/IFN stimulated. On the procedure:
THP-1 cells are obtained from ATCC and stored in liquid nitrogen. Medium for growth of THP-1 cells: RPMI 1640(GIBCO)+10% fetal bovine serum (GIBCO)+L-glutamine (2 mM)+penicillin/streptomycin (100 U/ml) +β-mercaptoethanol (0.05 mM). Cell culture medium for THP-1 incubation: RPMI 1640(GIBCO)+5% fetal bovine serum (GIBCO)+L-glutamine (2 mM)+penicillin/streptomycin (100 U/ml)+β-mercaptoethanol (0.05 mM).
The solution for stimulation is prepared by mixing equal volumes of IFNγ (Boehringer Mannheim, 2000 U/ml) and LPS (Sigma, L8274, 100 μg/ml). The dye solution is prepared from 500 mg MTT (Sigma, M2128) in 100 ml phosphate buffered saline (PBS) and kept under sterile conditions at 4° C. Sodium dodecyl sulfate (SDS) solution (10%) is made from 50 g SDS (Bioprobe Systems) and 5 ml 1N HCl. The solution is made up to 500 ml with distilled water and kept at room temperature (precipitates in the fridge). All incubations are done at 37° C. in 5% CO2. […]
The absorbance at 540 nm is read with a microplate reader (Biotec 808 Elx). […]
Calculation of cytotoxicity: The absorbance corresponding to 100% cytotoxicity equals the absorbance of wells without cells (no MTT converted into the blue dye). The absorbance corresponding to no cytotoxicity is taken from wells without substance, but with control solvent. Percent cytotoxicity is calculated for each substance concentration.

In data set [2] the test system is IL-1β release from human peripheral blood mononuclear cells. The experiment in a line: IL-1β release from human PBMCs (LPS/γ-interferon stimulated, ELISA). Format: cell-based. The following applies: PBMC, LPS 5 μg/ml + γ-interferon 100 U/ml, 4.5 hours. The method, then: (§1) 2. TNFα and IL-1 Release from Human PBMCs
(§2) Cell Separation and Culture
All cell culture and ELISA work was done on 96 well plates (Costar). Mononuclear cells were prepared from the blood of healthy volunteers using ficoll-hypaque density separation according to the method of Hansel et al (Hansel TT et al. (1991) An improved immunomagnetic procedure for the isolation of highly purified human blood eosinophils. J. Imm. Methods 145, 105-110) and used at a concentration of 100,000 cells/well in RPMI 1640, 5% FCS (Gibco). Serial dilution of the test compound were made in DMSO and diluted with culture medium. Final DMSO concentration in the culture medium was 0.1%. Compound were preincubated with the cells for 30 minutes at 37° C., 5% CO2. Then, the cells were stimulated with LPS (5 μg/ml, Sigma) and γ-interferon (100 U/ml, Boehringer Mannheim) and cultured for 3 hours (for TNFα-determination) or 4.5 hours (for Il-1 β and Il-6 determination). […]
ELISA microtiter plates were coated with a murine anti-human IL-1^2 MAb (Human IL-1^2 Cytoset (Biosource International Inc., #CHC1214), 100 μl at 1 μg/ml) in PBS 0.02% NaN3 and incubated overnight at +4° C., The following day, microtiter plates were washed 4 times with PBS/0.05% Tween/0.02% NaN3 and blocked with 300 μl of PBS/2% bovine serum albumin (BSA)/0.02% NaN3 for 3 h. […] Plates were read in a microtiter reader (Bio-Rad) using filters of 405 and 490 nm.

The test system of data set [3] is IL-6 production in human dermal fibroblasts. The experiment in a line: IL-6 production in human dermal fibroblasts (IL-1β stimulated, ELISA). The following applies: Fibroblast, 1 μM compound, IL-1β 100 pg/ml, 16-17 h. Type of data set: cell-based. The method, then:
4. IL-6 Production in Human Dermal Fibroblasts
Human dermal foreskin fibroblasts were obtained from Clonetics (CC-2509) and grown in FBM (Clonetics, CC-3131 ) including bFGF (1 ng/ml, CC-4065), insulin (5 μg/ml, CC-4021), and 2% FCS (CC-4101).
For induction of IL-6, cells were seeded at a density of 10^4 cells per well in a 48 well tissue cluster. The following day, cells were starved for 6-7 h in FBM containing 2% FCS. Compounds were added at final concentrations of 10 and 1 μM 30 min prior to stimulation with recombinant human IL-1β (100 pg/ml).
Cell supernatant was taken 16-17 h after stimulation and the amount of released IL-6 determined in a sandwich ELISA.
ELISA microtiter plates were coated with a murine anti-human IL-6 MAb (314-14 (Novartis Pharma; batch EN23,961, 5.5 mg/ml); 100 μl at 3 μg/ml) in PBS 0.02% NaN3 and incubated overnight at +4° C., The following day, microtiter plates were washed 4 times with PBS/0.05% Tween/0.02% NaN3 and blocked with 300 μl of PBS/3% bovine serum albumin (BSA)/0.02% NaN3 for 3 h. […] Plates were read in a microtiter reader (Bio-Rad) using filters of 405 and 490 nm. IL-6 levels in culture supernatants were calculated in reference to the standard curve using the cubic curve fit. Percentage inhibitions and IC50 values were calculated

The next data set concerns the target T1, Recombinant human Prak (Homo sapiens, UniProt Q8IW41).
T1 construct: His6; made in house; host or cells: E. coli
T1 sequence (Q8IW41 1-471 isoform Q8IW41-2): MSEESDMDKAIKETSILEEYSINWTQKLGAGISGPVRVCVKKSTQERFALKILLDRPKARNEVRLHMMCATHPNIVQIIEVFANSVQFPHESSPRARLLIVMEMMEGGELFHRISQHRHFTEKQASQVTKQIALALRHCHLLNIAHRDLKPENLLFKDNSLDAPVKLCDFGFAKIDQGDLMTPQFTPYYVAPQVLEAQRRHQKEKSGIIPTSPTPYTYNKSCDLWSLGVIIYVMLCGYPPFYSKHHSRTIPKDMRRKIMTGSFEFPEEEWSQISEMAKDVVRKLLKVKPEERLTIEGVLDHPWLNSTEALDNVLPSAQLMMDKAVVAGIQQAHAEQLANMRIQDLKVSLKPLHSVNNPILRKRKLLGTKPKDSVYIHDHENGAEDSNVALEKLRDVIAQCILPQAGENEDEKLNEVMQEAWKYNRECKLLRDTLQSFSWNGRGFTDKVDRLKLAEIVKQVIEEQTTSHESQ
Description: In vitro kinase assay Prak (HSP27 phosphorylation, 33P-ATP). Format: biochemical. The following applies: activated recombinant human Prak, His-HSP27 substrate, 1 h at room temperature. On the procedure: Recombinant human Prak was expressed in E. coli as His6-tagged protein substantially as described for Mnk1 by Tschopp et al. (Tschopp et al. (2000) Phoshorylation of eIF-4E on Ser 209 in response to mitogenic and inflammatory stimuli is faithfully detected by specific antibodies. Molecular Cell Biology Res. Comm. 3, 205-211). Phospho-p38a and His6-Hsp27 was prepared substantially as described (New et al. and Tschopp et al. ibid). All kinase reactions were performed with the following reaction buffer. Kinase buffer (5×): 125 mM Hepes (Stock at 1M; Gibco #15630-056), 125 mM β-glycerophosphate (Sigma #G-6251):125 mM MgCl2 (Merck #5833); 0.5 mM Sodium orthovanadate (Sigma #5-6508), 10 mM DTT (Boehringer Mannheim #708992), pH 7.4. The (5×) kinase buffer is freshly prepared from 25× stock solution. DTT is stored frozen at −20° C. in small aliquots and added immediately before use.
Prior to the assay, recombinant Prak is phosphorylated by incubation with phospho-p38. […]
The assay is stopped after one hour of incubation at room temperature by the addition of 5 μl EDTA 0.5M. […] After washing and drying the membrane, incorporated label is quantified by liquid scintillation counting.

The subject of data set [4] is TNFα release from human peripheral blood mononuclear cells. The experiment in a line: TNFα release from human PBMCs (LPS/γ-interferon stimulated, ELISA). Format: cell-based. To be noted: PBMC, LPS 5 μg/ml + γ-interferon 100 U/ml, 3 hours. On the procedure: as §1, §2
All cell culture and ELISA work was done on 96 well plates (Costar). Mononuclear cells were prepared from the blood of healthy volunteers using ficoll-hypaque density separation according to the method of Hansel et al (Hansel TT et al. (1991) An improved immunomagnetic procedure for the isolation of highly purified human blood eosinophils. J. Imm. Methods 145, 105-110) and used at a concentration of 100,000 cells/well in RPMI 1640, 5% FCS (Gibco). Serial dilution of the test compound were made in DMSO and diluted with culture medium. Final DMSO concentration in the culture medium was 0.1%. […]
For ELISA determination, supernatants were diluted 1:1 and added into a plate coated with the anti humanTNF monoclonal antibody (357-101-4, clone 92030603 from European Collection of Animal Cell Cultures, antibody produced and purified within Novartis Pharma, 1 μg/ml in PBS) After overnight incubation, the plates were washed (4×) and biotinylated anti humanTNF monoclonal antibody 2-179-E11 (clone 92030602 (European Collection of Animal Cell Cultures), produced and purified in Novartis Pharma) was added to a final concentration of 1 μg/ml (100 μl/well). […] Color formation was monitored in a Bio-Tec ELx 808 plate reader at 405 nm in the kinetic mode for 30 minutes. […]

One may read the IC50 as the concentration that gives 50% inhibition. One may read the inhibition as the relative decrease from the control value, in per cent. On to `O=S(=O)(c1ccc(Nc2nccc(N3CCCc4c(O)cccc43)n2)cc1)N1CCCCC1` [Compound A], for which, in data set [1], the IC50 at 24 h was greater than 30000 nM. Also, the IC50 in data set [2] was 1100 nM; on Recombinant human Prak, 1100 nM; in data set [4] it was 2200 nM. In data set [3], this compound displayed an inhibition at 1 µM of 100%.
